From patent US8158661B2, “GSK-3 inhibitors” (Noscira, S.A., priority 2004, dated 2012)

Assays:
[1] = target: T1, Bovine serum albumin (Fraction V) (Bos taurus, UniProt P02769); test: Binding to BSA (incubation, HPLC-UV/MS); format: in vitro ADME; details: compound and BSA 1 mM each, 30 minutes at room temperature
T1 construct: Bovine serum albumin (Fraction V) (Sigma); purchased Sigma
Method: The compounds (working solution at 1 mM) were incubated during 30 minutes at room temperature with Glutathione (Sigma) and Bovine serum albumin (Fraction V) (Sigma) at equimolecular concentrations (1 mM). After this time the solution was filtrated and analysed by HPLC-UV/MS.
HPLC was performed with a symmetry C18 (2.1×150 mm, 3.5 μm) column using a Waters Alliance 2695 with a 2996 photodiode array and ZQ2000 mass spectrometer used for the analytical separation and for UV and mass determination. The gradient used for the elution was: […]
Flux: 0.25 mL/min; temp: 30° C.; Detection: 250 nm; Injection Volume: 10 μL

[2] = target: Recombinant human glycogen synthase kinase 3β (Homo sapiens, UniProt P49841); test: GSK-3β inhibition; format: biochemical; details: recombinant human GSK-3β, GS-2 62.5 μM, ATP 12.5 μM, 30 min at 30° C.
Method: The GSK-3β activity was determined by incubation of a mixture of recombinant human GSK-3 enzyme, a phosphate source and GSK-3 substrate in the presence and in the absence of the corresponding test compound, and by measuring the GSK-3 activity of this mixture.
The final assay volume was 20 μl. After incubation for 30 minutes at 30° C., 15 μl aliquots were spotted onto P81 phosphocellulose papers. Filters were washed four times for at least 10 minutes each and counted with 1.5 ml of scintillation cocktail in a scintillation counter.

[3] = Brain permeation and pharmacokinetics after oral and intravenous administration; format: in vivo, C57/BL6 mice; details: mice
Method: C57/BL6 mice (15-30 g) from Charles River laboratories Spain were used in this study. […] Water was available ad libitum. Animals were fasted for 4 hours before treatment, but with water ad libitum. They were fed 2 hours after administration.
The route of administration was a single oral administration at […] (10 mL/kg) and single intravenous administration at 2 mg/kg (10 mL/kg). An additional experiment was performed at 200 mg/kg by the oral route only to determine proportionality of absorption.
Blood was heparinized, and after centrifugation (3000 rpm, 10 mins, 5° C.), two plasma aliquots stored at −20° C. and −30° C. until analysis (HPLC/MS-MS).

T1 sequence (P02769 25-607): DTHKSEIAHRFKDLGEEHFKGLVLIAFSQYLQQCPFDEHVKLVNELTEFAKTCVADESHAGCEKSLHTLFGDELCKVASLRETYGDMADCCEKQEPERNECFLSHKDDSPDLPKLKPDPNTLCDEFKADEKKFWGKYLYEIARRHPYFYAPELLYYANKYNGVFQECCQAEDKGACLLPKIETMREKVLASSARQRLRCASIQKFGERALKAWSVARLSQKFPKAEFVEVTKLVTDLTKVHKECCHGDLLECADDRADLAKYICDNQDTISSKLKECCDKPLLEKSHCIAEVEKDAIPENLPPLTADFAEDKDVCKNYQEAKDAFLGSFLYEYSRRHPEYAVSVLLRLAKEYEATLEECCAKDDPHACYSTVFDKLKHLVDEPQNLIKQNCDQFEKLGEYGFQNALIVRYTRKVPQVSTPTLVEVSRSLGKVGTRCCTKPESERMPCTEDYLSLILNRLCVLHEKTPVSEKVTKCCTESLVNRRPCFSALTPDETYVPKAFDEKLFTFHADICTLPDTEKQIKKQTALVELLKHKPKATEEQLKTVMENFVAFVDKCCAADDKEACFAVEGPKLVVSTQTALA
Sequence of Recombinant human glycogen synthase kinase 3β (P49841 whole entry): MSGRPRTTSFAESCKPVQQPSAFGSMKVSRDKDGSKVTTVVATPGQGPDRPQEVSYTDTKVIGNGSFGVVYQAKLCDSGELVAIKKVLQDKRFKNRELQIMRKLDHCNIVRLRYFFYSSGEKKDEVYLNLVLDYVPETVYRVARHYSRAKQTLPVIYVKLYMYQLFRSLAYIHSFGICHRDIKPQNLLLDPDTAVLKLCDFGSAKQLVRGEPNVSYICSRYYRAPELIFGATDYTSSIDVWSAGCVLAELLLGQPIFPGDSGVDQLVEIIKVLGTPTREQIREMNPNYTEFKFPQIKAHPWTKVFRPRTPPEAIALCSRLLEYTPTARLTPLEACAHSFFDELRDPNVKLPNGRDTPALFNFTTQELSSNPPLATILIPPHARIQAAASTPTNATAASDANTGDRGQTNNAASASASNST

% unbinding compound, albumin [1] [%] | IC50 [2] [µM] | melting point [°C] | Compound | other results
98.0 | – | – | O=c1sn(-c2cccc3ccccc23)c(=O)n1Cc1ccccc1 [Compound 2, 4-Benzyl-2-naphthalen-1-yl-[1,2,4]thiadiazolidine-3,5-dione] | bioavailability ([3]; both sexes, C57/BL6, mouse, plasma, oral 20 mg/kg vs intravenous 2 mg/kg): 31.9%; half-life ([3]; both sexes, C57/BL6, mouse, plasma, oral administration of 20 mg/kg): 6 h; Cmax ([3]; both sexes, C57/BL6, mouse, single oral dose 20 mg/kg, plasma): 905 ng/mL; Cmax ([3]; both sexes, C57/BL6, mouse, single oral dose 200 mg/kg, plasma): 9060 ng/mL; Absorption from the GI tract ([3]; after oral administration): quickly absorbed; Levels in the brain ([3]; both after oral and intravenous administration): detected in the brain
65.5 | 4.2 | – | O=c1sn(-c2ccc3c(c2)OCO3)c(=O)n1Cc1ccccc1 [Compound 5, 4-Benzyl 2-((3,4-methylenedioxy)phenyl)-[1,2,4]thiadiazolidine-3,5-dione] | –
68.3 | < 50 | – | COc1ccc(Cn2sc(=O)n(Cc3ccccc3)c2=O)cc1 [Compound 7, 4-Benzyl-2-(4-methoxybenzyl)-[1,2,4]thiadiazolidine-3,5-dione] | –
62.3 | 3 | 89.8 | Cc1cccc(C(C)(C)C)c1-n1sc(=O)n(Cc2ccccc2)c1=O [Compound 8, 4-Benzyl-2-(2-tert-butyl-6-methyl-phenyl)-(1,2,4)thiadiazolidine-3,5-dione] | –
91.4 | 8 | 154.9 | O=c1sn(-c2ccccc2Cc2ccccc2)c(=O)n1Cc1ccccc1 [Compound 9, 4-Benzyl-2-(2-benzyl-phenyl)-[1,2,4]thiadiazolidine-3,5-dione] | –
98.9 | 3 | 88.8 | O=c1sn(-c2ccc(Oc3ccccc3)cc2)c(=O)n1Cc1ccccc1 [Compound 10, 4-Benzyl-2-(4-phenoxyphenyl)-[1,2,4]thiadiazolidine-3,5-dione] | –

The remaining lines, values behind:

Compound | % unbinding compound, albumin [1] [%] | IC50 [2] [µM] | melting point [°C] | other results
O=c1sn(Cc2ccccc2)c(=O)n1Cc1ccccc1 [2,4-dibenzyl-1,2,4-thiadiazolidine-3,5-dione, reference compound] | 57.0 | – | – | –
O=c1sn(CCc2ccccc2)c(=O)n1Cc1ccccc1 [Compound 1, 2-Phenethyl-4-benzyl-(1,2,4)thiadiazolidine-3,5-dione] | 80.2 | 3 | – | –
O=c1sn(C23CC4CC(CC(C4)C2)C3)c(=O)n1Cc1ccccc1 [Compound 3, 2-(1-adamantyl)-4-benzyl-[1,2,4]thiadiazolidine-3,5-dione] | 54.0 | > 50 | 128.8 | –
Cc1ccc(Cn2sc(=O)n(Cc3ccccc3)c2=O)cc1 [Compound 4, 4-Benzyl-2-(4-methyl-benzyl)-[1,2,4]thiadiazolidine-3,5-dione] | 67.2 | 1.8 | – | –
O=c1sn(C(c2ccccc2)c2ccccc2)c(=O)n1Cc1ccccc1 [Compound 6, 4-Benzyl-2-diphenylmethyl-1,2,4-thiadiazolidine-3,5-dione] | 84.0 | 2 | 111.5 | –
